# Test results taken from patent publication US20060160789A1 (priority 2005, published 2006).
# “And” between values parts separate entries of the source, which are not always exact repeats. Equal values may be shown once.
# System: patients hospitalized for a laparotomy in the context of digestive surgery
# Conditions: human, in vivo
structure (smiles),measurement,value
CN1CCOC(c2ccccc2)c2ccccc2C1 (centres unmarked) [nefopam],Morphine PCA over 24 h,0.255 mg/kg and 0.454 mg/kg
same,Morphine titration (mg),7.5 mg and 9 mg
same,Morphine titration (mg/kg),0.082 mg/kg and 0.130 mg/kg
same,Total morphine over 24 h,0.365 mg/kg and 0.649 mg/kg
same,quantity of morphine titration administered for group 4 versus quantity expected if nefopam only had analgesic effects,smaller than that which would have had to be administered to the group if nefopam only had analgesic effects
